{
  "source": "patent US10874641B2",
  "about": "“Methods of treating acute kidney injury” (Mitobridge, Inc., priority 2016, dated 2020)",
  "tested_on": "ischemia/reperfusion induced kidney injury",
  "assay": "rat model of ischemia/reperfusion induced kidney injury",
  "type": "in vivo",
  "settings": "Sprague Dawley rats after ischemic renal injury (45 min bilateral renal pedicle occlusion), veliparib 25 mg/kg BID PO",
  "from_the_text": "Acute kidney injury (AKI) is a clinical condition characterized by a rapid decline in kidney function and is often associated with high morbidity and mortality. The precise etiology of ischemia/reperfusion (I/R)-induced AKI is yet not fully understood and is thought to involve multiple factors. The prevention of acute kidney injury and its progression represents a great challenge particularly in renal transplanted patients. Therefore, animal models of renal ischemia/reperfusion (I/R) are important to understand pathophysiology and potential treatment strategies for AKI. The present study evaluated the efficacy of a test compound, namely veliparib (shown below),\n[drawing 8] in a rat model of ischemia/reperfusion induced kidney injury.\nSpecies: Rattus norvegicus\n3. Experimental Plan • i. All animals were numbered and kept in acclimatization for a period of 5-7 days, with 2 days acclimatization on metabolic cages before, initiation of the experiment. • ii. Animals were randomized into different treatment groups based on their body weight and assigned a permanent number. • iii. Body weight measurements were made once at randomization, also daily just prior to compound dosing and prior to termination. All body weights were recorded. • iv. Treatment with test compound(s) varied based on dose group (see table) that follows different dosing paradigms. The time of each dose administration was recorded. • 1. The dosing schedule for groups 1 and 2 was as follows: a 5 mL/kg BID dose with vehicle starting Day −1 through Day 2 with the final dose on Day 3 occurring 2 hours prior to takedown. • 2. The dosing schedule for group 3 with veliparib was 25 mg/kg BID starting on Day −1. […] After 45 min, the clips were removed, reperfusion was monitored (change in kidney color) for 1-2 min and the surgical sites were sutured. […] Postsurgical care and recovery: Animals were monitored until recovery from anesthesia and returned to their metabolic cage. […] For the 6 hour collection, urine volume was measured and recorded (to the nearest 1.0 mL) and samples were clarified by centrifugation (3000 rpm for 10 minutes). […]",
  "note": "Entries after “also recorded” stand apart in the source; their conditions may differ.",
  "data": [
    {"smiles": "C[C@]1(c2nc3c(C(N)=O)cccc3[nH]2)CCCN1", "note": "[veliparib]", "values": [
      {"measurement": "induced increases in blood urea nitrogen (BUN)", "setting": "FIG. 2A/2B", "result": "attenuates"},
      {"measurement": "induced increases in plasma creatinine levels", "setting": "FIG. 2A/2B", "result": "attenuates"},
      {"measurement": "fractional excretion of sodium (a measurement of tubular injury)", "setting": "FIG. 3", "result": "improves; also recorded: attenuates"}
    ]}
  ]
}
